Assay results as given in patent US9315546B2, “Growth hormone secretatogue receptor antagonists and uses thereof” (The Administrators of the Tulane Educational Fund, priority 2010, dated 2016).
Where “and” joins values, the source holds several entries; their conditions need not be identical. Identical values can stand only once. Values belong to the substance of their own block, whether it stands above or below them. Where no end group is shown, it is not given here. [ ]: non-standard residue; d: D form. d2Nal = N[C@H](Cc1ccc2ccccc2c1)C(=O)O; βAla = NCCC(=O)O

Key:
[1] = target: T1, Ghrelin/GHRP/GHS Receptor (Rattus norvegicus, UniProt O08725); test: In vivo GH release in rat after i.v. peptide (serum GH by RIA); settings: for Stimulated GH release (P + S) / Unstimulated GH release (−S): Pentobarbital Rats
Method: For the in vivo assay of GH Release in rat, immature female Sprague Dawley rats were obtained from Charles River from Wilmington, Mass. After arrival they were housed at 25° C. with a 14:10 h light:dark cycle. Water and Purina rat chow were available at libitum. Pups were weaned at 21 days of age.
Immature twenty six day old female Sprague Dawley rats, 3-6 rats per treatment dose, were pretreated with pentobarbital 20 minutes before iv injection of vehicle/peptide or peptide plus stimulator. Injection was made as a 0.1 ml solution. For the non-pentobarbital treated rat assay, peptides were administered iv into the tail vein of conscious rats. All animals were sacrificed by guillotine after iv peptide or vehicle. Trunk blood was collected at +10-15 minutes […], allowed to clot, centrifuged and serum stored until assayed for GH levels by RIA. The GH RIA reagents were distributed by the NIH. Control data was collected from rats treated with only the corresponding vehicle in the absence of peptide or stimulator. Control stimulated data was collected from rats treated with stimulator alone in the absence of any peptide.

[2] = target: T1, Ghrelin/GHRP/GHS Receptor; test: GH release from cell culture of pituitary cells; type: cell-based; design: After dispersion, the cells were collected by centrifugation, wash with DMEM and placed into culture well; endogenous in cells; host or cells: dispersed primary rat pituitary cells, 4 days in culture; settings: Table 8
Method: In vitro GH Release-Female rats of the CD-1 strain were housed in a constant temperature room at 24° C. with 14 h light and 10 h darkness. The rats were fed Purina Rat chow and water at libitum. All studies were started between 0800-1000 hours. Pituitaries of mature female Sprague Dawley rats were rapidly removed after decapitation, neurointermediate lobe discarded and then placed in a pH 7.4 buffer. The pituitaries were cut into ˜3-mm pieces and then transferred to a flask containing HEPS buffer with trypsin and incubated at 37° C. Cells were triturated several times during this period. After dispersion, the cells were collected by centrifugation, wash with DMEM and placed into culture well. Cell cultures were maintained for 4 days at 37° with 8% CO2 added to the incubator atmosphere. After 4 days in culture, cells were washed with lactated Ringer's solution adjusted to pH 7.2-7.4 and then vehicle, peptide alone or peptide plus stimulator was added to media. Incubation time was 60-120 minutes after which media was removed from each well for GH determination. The GH RIA reagents were distributed by the NIH. Control data was collected from cell cultures treated with only the corresponding vehicle in the absence of peptide or stimulator. Control stimulated data was collected from cell cultures treated with stimulator alone in the absence of any peptide.

[3] = Table 3, peptide alone 3 μg i.v.
[4] = Table 3, peptide alone 10 μg i.v.
[5] = Table 3, peptide alone 30 μg i.v.
[6] = Table 3, peptide alone 100 μg i.v.
[7] = peptide antagonist 30 μg i.v. + stimulator 1 μg
[8] = Table 5, peptide alone 10 μg i.v.
[9] = Table 5, peptide alone 30 μg i.v.
[10] = peptide antagonist 30 μg i.v. + stimulator 0.3 μg

T1 sequence (O08725 whole entry): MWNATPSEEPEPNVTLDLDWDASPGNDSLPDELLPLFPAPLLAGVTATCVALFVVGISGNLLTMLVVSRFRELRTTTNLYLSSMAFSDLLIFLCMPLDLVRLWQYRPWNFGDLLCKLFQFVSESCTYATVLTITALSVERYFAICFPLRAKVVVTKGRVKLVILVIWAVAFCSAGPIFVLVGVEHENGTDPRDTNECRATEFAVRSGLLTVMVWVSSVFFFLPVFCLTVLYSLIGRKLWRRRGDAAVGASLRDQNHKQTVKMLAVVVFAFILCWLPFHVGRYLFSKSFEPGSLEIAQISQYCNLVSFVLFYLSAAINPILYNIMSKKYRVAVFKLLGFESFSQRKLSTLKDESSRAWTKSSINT

Substance: [d2Nal]AW[dF]A-NH2 [1-DβNal-Ala-Trp-DPhe-Ala-NH2]
Unstimulated Basal GH release ([1]; Table 3, peptide alone 1 μg i.v.): 623 ± 60 ng/mL
Unstimulated Basal GH release [1, 3]: 694 ± 70 ng/mL
Unstimulated Basal GH release [1, 4]: 654 ± 58 ng/mL
Unstimulated Basal GH release [1, 5]: 713 ± 71 ng/mL

Substance: [βAla]W[dA][dW]F-NH2 [10-βAla-Trp-DAla-DTrp-Phe-NH2]
Unstimulated Basal GH release [1, 5]: 341 ± 46 ng/mL
Unstimulated Basal GH release [1, 6]: 636 ± 171 ng/mL

Substance: [dA][d2Nal]AT[dT]K-NH2 [4-DAla-DβNal-Ala-Thr-DThr-Lys-NH2]
Unstimulated Basal GH release [1, 3]: 255 ± 38 ng/mL
Unstimulated Basal GH release [1, 5]: 288 ± 31 ng/mL
Unstimulated Basal GH release [1, 6]: 386 ± 57 ng/mL

Substance: [dA][d2Nal][dK][dW]FK-NH2 [3-DAla-DβNal-DLys-DTrp-Phe-Lys-NH2]
Stimulated GH release (P + S) ([1]; peptide 30 μg i.v. + stimulator 1 μg): 2864 ± 828 ng/mL
Stimulated GH release (P + S) ([1]; peptide 100 μg i.v. + stimulator 1 μg): 1198 ± 114 ng/mL
Unstimulated GH release (−S) ([1]; peptide alone 30 μg i.v.): 323 ± 50 ng/mL
Unstimulated GH release (−S) ([1]; peptide alone 100 μg i.v.): 812 ± 6 ng/mL
Stimulated GH release [1, 7]: 2884 ± 828 ng/mL
Stimulated GH release ([1]; peptide antagonist 100 μg i.v. + stimulator 1 μg): 1198 ± 114 ng/mL

Substance: [d2Nal]AW[dF]L-NH2 [7-DβNal-Ala-Trp-DPhe-Leu-NH2]
Unstimulated Basal GH release [1, 3]: 253 ± 79 ng/mL
Unstimulated Basal GH release [1, 4]: 277 ± 43 ng/mL
Unstimulated Basal GH release [1, 5]: 347 ± 66 ng/mL
Unstimulated Basal GH release [1, 6]: 645 ± 117 ng/mL

Substance: αAbu-DTrp-DTrp-Orn-NH2 [4-αAbu-DTrp-DTrp-Orn-NH2]
Unstimulated Basal GH release ([1]; Table 5, peptide alone 1 μg i.v.): 85 ± 25 ng/mL
Unstimulated Basal GH release [1, 8]: 88 ± 18 ng/mL
Unstimulated Basal GH release [1, 9]: 50 ± 6 ng/mL

Substance: Glyψ[CH2NH]-DβNal-Ala-Trp-DPhe-Lys-NH2 [1-Glyψ[CH2NH]-DβNal-Ala-Trp-DPhe-Lys-NH2]
Stimulated GH release ([1]; peptide antagonist 10 μg i.v. + stimulator 0.3 μg): 1112 ± 200 ng/mL
Stimulated GH release ([1]; peptide antagonist 10 μg i.v. + stimulator 1 μg): 2307 ± 176 ng/mL and 1842 ± 454 ng/mL
Stimulated GH release [1, 10]: 578 ± 82 ng/mL
Stimulated GH release [1, 7]: 890 ± 236 ng/mL and 1135 ± 140 ng/mL

Substance: inip-Trp-Trp-Phe-NH2 [10-inip-Trp-Trp-Phe-NH2]
Unstimulated Basal GH release [1, 8]: 69 ± 3 ng/mL
Unstimulated Basal GH release [1, 9]: 81 ± 10 ng/mL

Next, values leading:

Unstimulated Basal GH release [1, 3]: 235 ± 43 ng/mL
Unstimulated Basal GH release [1, 4]: 178 ± 33 ng/mL
Unstimulated Basal GH release [1, 5]: 172 ± 15 ng/mL
Unstimulated Basal GH release [1, 6]: 185 ± 39 ng/mL
Substance: DAla-DβNal-Ala-Ala-DAla-Lys-NH2 [6-DAla-DβNal-Ala-Ala-DAla-Lys-NH2]

Unstimulated Basal GH release [1, 8]: 121 ± 24 ng/mL
Substance: K[dH][dW]F-NH2 [8-Lys-DHis-DTrp-Phe-NH2]

Stimulated GH release [1, 10]: 1487 ± 397 ng/mL
Substance: AH[dW][dK]W[dF]K-NH2 [5-Ala-His-DTrp-DLys-Trp-DPhe-Lys-NH2]

Unstimulated Basal GH release [1, 3]: 181 ± 28 ng/mL
Unstimulated Basal GH release [1, 4]: 237 ± 18 ng/mL
Unstimulated Basal GH release [1, 5]: 354 ± 81 ng/mL
Unstimulated Basal GH release [1, 6]: 771 ± 76 ng/mL
Substance: DcyclohexylAla-Ala-Trp-DPhe-NH2 [5-DcyclohexylAla-Ala-Trp-DPhe-NH2]

Unstimulated Basal GH release ([2]; peptide 3 μg/ml): 1146 ± 34 ng/mL
Unstimulated Basal GH release ([2]; peptide 10 μg/ml): 1086 ± 32 ng/mL
Unstimulated Basal GH release ([2]; peptide 30 μg/ml): 871 ± 89 ng/mL
Substance: [dF]W[dF]FM-NH2 [13-DPhe-Trp-DPhe-Phe-Met-NH2]
